Columns and labels:
Assay type in all cases: in vivo, SKH-1 hairless mice
[1] = tested on: dorsal skin of the mice, irradiated with ultraviolet light; test: Skin water-holding capacity (Multi Probe Adapter MPA 6); details: UVB-irradiated mice, oral 8 weeks, compared with CON
Experimental: (§1) A total of seven experimental groups (six animals per group) were defined as a normal control group (normal, not UVB-induced), a negative control group (control, UVB-irradiated), a GOS alone treatment group (GOS 200 mg/kg, UVB-irradiated) and a CTP alone treatment group (CTP 200 mg/kg, UVB-irradiated), a GOS/CTP 1:3 mixed treatment group (GOS/CTP 50:150 mg/kg, UVB-irradiated), a GOS/CTP 1:1 mixed treatment group (100:100 mg/kg, UVB-irradiated), and a GOS/CTP 3:1 mixed treatment group (GOS/CTP 150:50 mg/kg, UVB-irradiated).
(§2) The mice were acclimated for one week, and then photo-aging was induced in the mice of six groups except for the normal control group (NOR) by exposing their dorsal skin to ultraviolet light three times a week for 8 weeks through the ultraviolet irradiation device (BLX-E254, Vilber Lourmat, France) equipped with the UVB-ultraviolet lamp (T-8M; Vilber Lourmat, France) (Hong et al., 2015). As for the dosage of ultraviolet irradiation, the irradiation dosage inside the ultraviolet irradiation device was measured by the UV light meter (UV-340; Lutron, Taiwan) and adjusted, and then the UVB dosage was controlled as shown in Table 1. […]

[2] = tested on: TIMP1; test: qRT-PCR of skin tissue, TIMP 1; details: compared with CON
Experimental: (§3) In order to investigate the effects of the compositions of the present disclosure on the expression of skin condition-related genes, the present inventors measured the expression levels of collagen type I, matrix metalloproteinase (MMP) 2/3/9, TIMP1/2, hyaluronidase (HYAL), and NF-K in comparison with GAPDH.
(§4) Specifically, about 100 mg of the skin tissue was collected from each mouse of the experimental groups administered the compositions of the present disclosure, and total RNA was isolated using TRIzol reagent. To the isolated RNA was added 50 μM Oligo-(dT) primer and 10 mM dNTP mix, followed by reaction at […] for 5 minutes, and then 5×RT Buffer, 0.1 M DTT, RNaseOUT, SuperScript III, and 25 mM MgCl2 were added with mixing, followed by reaction under conditions of 50° C. for 50 minutes and 85° C. for 5 minutes. RNase H was added and incubated at 37° C. for 20 minutes, thereby synthesizing cDNA from mRNA. To perform POR, 1 μL of the synthesized cDNA was mixed with primers, SYBR green gene expression master mix, and DEPO water, followed by qPCR. The expression level of each target gene was indicated as a relative expression level compared with the NOR group.

[3] = tested on: intestinal microflora; test: Intestinal microflora change analysis (16S rRNA sequencing of caecum); details: photo-aging model, oral
Source text: The caecum of the mouse was harvested, and subjected to extraction using the i-genome clinic DNA extraction kit. The 16S rRNA library was constructed through the protocol of Illumina 16S V3˜V4 Amplicon (Illumina, San Diego, Calif., USA). The 16S rRNA V3-V4 region was amplified by the first polymerase chain reaction (PCR-1) using the DNA extract, and the PCR product was purified using Agencourt AMPure XP Beads (Beckman Coulter, Inc., Pasadena, Calif., USA), and the washed amplicons were quantified. The PCR product was used as a template for the second PCR (PCR-II) with Illumina dual index adapter sequence, and the final amplicon library was sequenced using the v3, 600 cycle kit and 301 base paired-end chemistry. Sequence data analysis was performed through QIIME 2 software, and then quality filtering was performed. […] The operational taxonomic units (OTUs) of the sequence were analyzed, and the alpha diversity analysis included the Richness, Shannon Index, and Abundance-based Coverage Estimator (ACE) indexes. […] The Kruskal-Wallis test was performed to analyze the diversity of the intestinal microflora and the difference in relative abundance, and the difference in beta diversity was analyzed by the ANOSIM and permutational multivariate analysis of variance (PERMANOVA) tests.

[4] = tested on: MMP2; test: qRT-PCR of skin tissue, MMP 2; details: compared with CON
Experimental: as §3, §4

[5] = tested on: dorsal skin of the mice, irradiated with ultraviolet light; test: Erythema value; details: UVB-irradiated mice, oral 8 weeks, compared with CON; no significant difference
Experimental: as §1, §2

[6] = Short-chain fatty acid (SCFA) analysis of caecum using GC
Experimental: The caecum of the mouse was harvested and extracted with methanol, and then the extract was analyzed for SCFA by using gas chromatography (Agilent Technologies, CA, USA) equipped with GC column (DB-FFAP 123-3253, 50 m×0.32 mm×[…]). The column temperature was set to be maintained at 100° C. for 1 minute, raised to 180° C. at a rate of 8° C./min, then raised to 200° C. at a rate of 20° C./min, and then stagnant at 200° C. for 5 min. The SCFA contents in the caecum were analyzed through the standard materials of acetic acid, propionic acid, and butyric acid.

## collagen tripeptide [CTP]
[1]
  change in water-holding capacity before and after ultraviolet irradiation: significantly increased
[2]
  gene expression level of TIMP 1: significantly increased
[3]
  Firmicutes/Bacteroidetes ratio: tended to increase
[4]
  gene expression level of MMP 2: significantly decreased
[5]
  change in erythema value before and after ultraviolet irradiation: tended to decrease
[6]
  content of butyric acid: significantly increased
[6]; compared with CON
  content of valeric acid: significant increase
  total short-chain fatty acid content: tendency of increase
[6]; compared with CON, no significant difference
  content of propionic acid: tended to increase
